Experimental data from patent publication US11739068B2, “Polymorphs of N-[(3-fluoro-4-methoxypyridin-2-yl)methyl]-3-(methoxymethyl)-1-({4-[(2-oxopyridin-1-yl)methyl]phenyl}methyl)pyrazole-4-carboxamide and salts thereof” (KALVISTA PHARMACEUTICALS LIMITED, priority 2016, dated 2023).

Experiments:
Format in all cases: physicochemical
Slurry studies = details: 72 hrs; for XRPD of solid after slurry versus starting form: 90/10 IPA/water, ambient temperature
Procedure: Form 1 (20 mg) was suspended in 90/10 IPA/water (200 μL or […]) and shaken at ambient temperature for 72 hrs. The supernatant was evaporated rather than filtered due to the small volume and the resulting solid was examined by XRPD (FIG. 6).
The supernatant was evaporated rather than filtered due to the small volume and the resulting solid was examined by XRPD (FIG. 28).
The supernatant was evaporated rather than filtered due to the small volume and the resulting solid was examined by XRPD (FIG. 34).
The supernatant was evaporated rather than filtered due to the small volume and the resulting solid was examined by XRPD (FIG. 40).

[1] = Visual aqueous solubility
Procedure: Form 1 (10 mg) was weighed into a glass vial and water was added in 100 μL portions up to 3 mL then 1 mL portions thereafter. Solubility was assessed visually following a brief period of equilibration.
Form 18 (10 mg) was weighed into a glass vial and water was added in 100 μL portions up to 3 mL then 1 mL portions thereafter. Solubility was assessed visually following a brief period of equilibration.
Form 8 (10 mg) was weighed into a glass vial and water was added in 100 μL portions up to 3 mL then 1 mL portions thereafter. Solubility was assessed visually following a brief period of equilibration.
Form 15 (10 mg) was weighed into a glass vial and water was added in 100 μL portions up to 3 mL then 1 mL portions thereafter. Solubility was assessed visually following a brief period of equilibration.
Form 16 (10 mg) was weighed into a glass vial and water was added in 100 μL portions up to 3 mL then 1 mL portions thereafter. Solubility was assessed visually following a brief period of equilibration.

[2] = Gravimetric Vapour Sorption (GVS)
Procedure: Gravimetric Vapour Sorption (GVS) data were collected using the following method: Approximately 10 mg of sample was placed into a wire-mesh vapour sorption balance pan and loaded into an ‘IgaSorp’ vapour sorption balance (Hiden Analytical Instruments). The sample was then dried by maintaining a 0% humidity environment until no further weight change was recorded. Subsequently, the sample was then subjected to a ramping profile from 0-90% RH at 10% RH increments, maintaining the sample at each step until equilibration had been attained (99% step completion). Upon reaching equilibration, the % RH within the apparatus was ramped to the next step and the equilibration procedure repeated. After completion of the sorption cycle, the sample was then dried using the same procedure. The weight change during the sorption/desorption cycles were then monitored, allowing for the hygroscopic nature of the sample to be determined.

| XRPD of solid after slurry versus starting form (Slurry studies) | %-Wt (dry basis) ([2]; adsorption, about 0 %-RH) [%] | %-Wt (dry basis) ([2]; adsorption, about 10 %-RH) [%] | %-Wt (dry basis) ([2]; adsorption, about 20 %-RH) [%] | %-Wt (dry basis) ([2]; adsorption, about 30 %-RH) [%] | %-Wt (dry basis) ([2]; adsorption, about 40 %-RH) [%] | %-Wt (dry basis) ([2]; adsorption, about 50 %-RH) [%] | %-Wt (dry basis) ([2]; adsorption, about 60 %-RH) [%] | %-Wt (dry basis) ([2]; adsorption, about 70 %-RH) [%] | %-Wt (dry basis) ([2]; adsorption, about 80 %-RH) [%] | %-Wt (dry basis) ([2]; adsorption, about 90 %-RH) [%] | %-Wt (dry basis) ([2]; desorption, about 0 %-RH) [%] | %-Wt (dry basis) ([2]; desorption, about 5 %-RH) [%] | %-Wt (dry basis) ([2]; desorption, about 15 %-RH) [%] | %-Wt (dry basis) ([2]; desorption, about 25 %-RH) [%] | %-Wt (dry basis) ([2]; desorption, about 35 %-RH) [%] | %-Wt (dry basis) ([2]; desorption, about 45 %-RH) [%] | %-Wt (dry basis) ([2]; desorption, about 55 %-RH) [%] | %-Wt (dry basis) ([2]; desorption, about 65 %-RH) [%] | %-Wt (dry basis) ([2]; desorption, about 75 %-RH) [%] | Compound | also measured |
| --- | --- | --- | --- | --- | --- | --- | --- | --- | --- | --- | --- | --- | --- | --- | --- | --- | --- | --- | --- | --- | --- |
| no change in the X-ray pattern | 0.03946 | 0.4404 | 0.6163 | 0.7771 | 0.6383 | 0.8735 | 1.214 | 2.0577 | 3.99 | 14.16 | 0.000552 | 0.07837 | 0.2289 | 0.3947 | 0.2459 | 0.5639 | 0.9496 | 1.643 | 3.436 | COCc1nn(Cc2ccc(Cn3ccccc3=O)cc2)cc1C(=O)NCc1nccc(OC)c1F.O=S(=O)(O)O [Form 8, N-[(3-fluoro-4-methoxypyridin-2-yl)methyl]-3-(methoxymethyl)-1-({4-[(2-oxopyridin-1-yl)methyl]phenyl}methyl)pyrazole-4-carboxamide sulfate] | Aqueous solubility (in words) [1]: excellent aqueous solubility; solubility ([1]; water, thermodynamic from solid): ~100 mg/mL; %-Wt (dry basis) ([2]; desorption, about 85 %-RH): 6.295%; Increase in water content by GVS (hygroscopicity, in words) ([2]; up to 70% relative humidity): only a relatively gradual increase in water content |
| different to that of Form 18 | 0.000338 | 0.2364 | 0.3723 | 0.5037 | 0.6618 | 0.9246 | 9.109 | 9.603 | 13.9262 | 66.83 | 0.35 | 2.227 | 3.448 | 4.993 | 7.125 | 9.624 | 12.7659 | 17.34 | 24.5 | COCc1nn(Cc2ccc(Cn3ccccc3=O)cc2)cc1C(=O)NCc1nccc(OC)c1F.Cl [Form 18, N-[(3-fluoro-4-methoxypyridin-2-yl)methyl]-3-(methoxymethyl)-1-({4-[(2-oxopyridin-1-yl)methyl]phenyl}methyl)pyrazole-4-carboxamide hydrochloride] | %-Wt (dry basis) ([2]; desorption, about 85 %-RH): 40.16% |

| Compound | XRPD of solid after slurry versus starting form (Slurry studies) | %-Wt (dry basis) ([2]; adsorption, about 0 %-RH) [%] | %-Wt (dry basis) ([2]; adsorption, about 10 %-RH) [%] | %-Wt (dry basis) ([2]; adsorption, about 20 %-RH) [%] | %-Wt (dry basis) ([2]; adsorption, about 30 %-RH) [%] | %-Wt (dry basis) ([2]; adsorption, about 40 %-RH) [%] | %-Wt (dry basis) ([2]; adsorption, about 50 %-RH) [%] | %-Wt (dry basis) ([2]; adsorption, about 60 %-RH) [%] | %-Wt (dry basis) ([2]; adsorption, about 70 %-RH) [%] | %-Wt (dry basis) ([2]; adsorption, about 80 %-RH) [%] | %-Wt (dry basis) ([2]; adsorption, about 90 %-RH) [%] | %-Wt (dry basis) ([2]; desorption, about 0 %-RH) [%] | %-Wt (dry basis) ([2]; desorption, about 5 %-RH) [%] | %-Wt (dry basis) ([2]; desorption, about 15 %-RH) [%] | %-Wt (dry basis) ([2]; desorption, about 25 %-RH) [%] | %-Wt (dry basis) ([2]; desorption, about 35 %-RH) [%] | %-Wt (dry basis) ([2]; desorption, about 45 %-RH) [%] | %-Wt (dry basis) ([2]; desorption, about 55 %-RH) [%] | %-Wt (dry basis) ([2]; desorption, about 65 %-RH) [%] | %-Wt (dry basis) ([2]; desorption, about 75 %-RH) [%] | also measured |
| --- | --- | --- | --- | --- | --- | --- | --- | --- | --- | --- | --- | --- | --- | --- | --- | --- | --- | --- | --- | --- | --- |
| N-[(3-fluoro-4-methoxypyridin-2-yl)methyl]-3-(methoxymethyl)-1-({4-[(2-oxopyridin-1-yl)methyl]phenyl}methyl)pyrazole-4-carboxamide edisylate [Form 15] | no differences in X-ray pattern |  |  |  |  |  |  |  |  |  |  |  |  |  |  |  |  |  |  |  | Result of water slurry (Slurry studies; 20 mg in deionised water (200 μL)): complete dissolution of the sample; Aqueous solubility ([1]; water, assessed visually): ~100 mg/mL; Aqueous solubility, repeat using less water ([1]; water, dissolved in 0.05 mL): > 200 mg/mL |
| N-[(3-fluoro-4-methoxypyridin-2-yl)methyl]-3-(methoxymethyl)-1-({4-[(2-oxopyridin-1-yl)methyl]phenyl}methyl)pyrazole-4-carboxamide edisylate [Form 16] |  | 1.612 | 2.367 | 2.626 | 2.834 | 3.045 | 3.351 | 7.516 | 9.935 | 15.98 | 94.26 | 0.00047 | 2.866 | 4.495 | 6.541 | 9.564 | 12.94 | 17.21 | 23.22 | 33.16 | %-Wt (dry basis) ([2]; desorption, about 85 %-RH): 57.4% |
